# PubChem BioAssay (NCI)
# Values joined by “and” are separate entries in the source; they are usually repeats but may differ in a detail not shown here. Equal entries are not always repeated.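 Compound exposure: 48 hours, 5 concentrations, 96-well plates. GI50 = concentration required for 50% inhibition of growth. At the TGI there is no net growth.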
# Key:
# Assay in all cases: NCI anticancer screen, dose series, 48 h
# [1] = system: BT-549 breast
# [2] = system: T-47D breast
# [3] = system: MDA-N
# [4] = system: RXF 393 renal
# [5] = system: MDA-MB-435
# [6] = system: 786-0 renal
# [7] = system: COLO 205 colon
# [8] = system: DMS 273 small cell lung
# [9] = system: SNB-78 CNS
# [10] = system: DLD-1 colon
# [11] = system: KM20L2 colon
# [12] = system: XF 498 CNS
# [13] = system: HS 578T breast
# [14] = system: MDA-MB-231 breast
Compound,TGI [1] [µM],TGI [2],TGI [3],TGI [4],TGI [5],TGI [6],TGI [7],TGI [8] [µM],TGI [9] [µM],TGI [10] [µM],TGI [11] [µM],TGI [12] [µM],TGI [13],TGI [14],GI50 [1] [µM],GI50 [2] [µM],GI50 [4] [µM],GI50 [5] [µM],GI50 [14] [µM],GI50 [7] [µM]
CCSc1nc(-c2cccs2)nc2ccc(I)cc12,> 100,6.88 µM,> 100 µM,> 100 µM,> 100 µM,> 100 µM,> 100 µM,–,–,–,–,–,–,–,–,–,–,–,–,–
CC1C(=O)C(C)C(c2ccco2)N(N=O)C1c1ccco1 (stereo not given),–,–,–,> 100 µM,–,–,> 100 µM,> 100,> 100,> 100,> 100,50.5,–,–,–,–,–,–,–,–
C[n+]1c2ccccc2c(CNC(CS)C(=O)O)c2ccccc21 (stereo not given),–,–,–,59.8 µM,–,> 100 µM,47.8 µM,57.3,> 100,> 100,82,40.3,–,–,–,–,–,–,–,–
O=C(NC(Cc1ccc(I)cc1)C(=O)O)c1ccc(Cl)cc1 (stereo not given),–,–,–,–,–,–,> 100 µM,> 100,> 100,> 100,> 100,> 100,–,–,–,–,–,–,–,–
COC(=O)c1ccccc1C1=C([N+](=O)[O-])C(c2cccc(Br)c2)C(C#N)=C(N)O1 (stereo not given),–,84.6 µM,> 100 µM,41.9 µM,57.4 µM,63.2 µM,> 100 µM,–,–,–,–,–,56.9 µM,> 100 µM,–,–,–,–,–,–
COc1cc([N+](=O)[O-])ccc1N1C(=O)C2c3[nH]c4ccccc4c3C3CCC(C(C)(C)C)CC3C2C1=O (stereo not given),> 100,–,> 100 µM,–,> 100 µM,–,> 100 µM,–,–,–,–,–,43.4 µM,75.5 µM,–,–,–,–,–,–
CCOP(=O)(OCC)C(Nc1cccc(F)c1)c1ccc(N(C)C)cc1 (stereo not given),> 100,> 100 µM,> 100 µM,> 100 µM,> 100 µM,–,> 100 µM,–,–,–,–,–,> 100 µM,> 100 µM,–,–,–,–,–,–
CN(C)CCCN1c2ccc([N+](=O)[O-])cc2CCc2cc([N+](=O)[O-])ccc21,29.2,32.1 µM and 36.3 µM,27.2 µM and 27 µM,19.9 µM and 25.6 µM,26.5 µM and 29.5 µM,24.5 µM and 27.5 µM,32 µM and 29.4 µM,–,–,–,–,–,34.4 µM and 35.6 µM,30.3 µM and 22.6 µM,–,–,–,–,–,–
C[N+](C)(C)CCN[N+]1(C)CCCc2ccccc21 (stereo not given),> 100,> 100 µM,> 100 µM,> 100 µM,> 100 µM,> 100 µM,> 100 µM,–,–,–,–,–,> 100 µM,> 100 µM,–,–,–,–,–,–
CC1(O)COCCCCOc2c(CN)cccc2NC(=O)c2nc(cnc2N)-c2ccc(cc2)S(=O)(=O)C(C)(C)C1 (stereo not given),2.91,3.27 µM,–,1.87 µM,2.72 µM,–,2.17 µM,–,–,–,–,–,–,2.82 µM,1.45,1.44,0.015,1.35,1.37,0.546
COC(=O)NC1C(C)OC(OC2C/C=C(/C)C3C=CC4C(OC5CC(OC6CC(OC7CC(O)C(O)C(C)O7)C(OC7CC(O)C(OC)C(C)O7)C(C)O6)C(O)C(C)O5)C(C)CC(C)C4C3(C)/C(O)=C3\C(=O)OC4(CC(C)C(CO)=CC4/C=C\2C)C3=O)CC1(C)[N+](=O)[O-] (stereo not given),89.5,25 µM,> 100 µM,–,> 100 µM,7.08 µM,36.2 µM,–,–,–,–,–,> 100 µM,40.2 µM,–,–,–,–,–,–
c1ccc([P+](c2ccccc2)(c2ccccc2)c2ccc(-c3ccc([P+](c4ccccc4)(c4ccccc4)c4ccccc4)cc3)cc2)cc1,> 100,> 100 µM,92.6 µM,> 100 µM,84.5 µM,> 100 µM,31.5 µM,–,–,–,–,–,> 100 µM,63.5 µM,–,–,–,–,–,–
CCc1ccc2c(c1)C(=O)c1c-2n(CCCN)c(=O)c2cc([N+](=O)[O-])ccc12,3.29,2.91 µM,–,–,3 µM,–,2.51 µM,–,–,–,–,–,–,2.98 µM,1.68,1.28,–,1.56,1.53,1.21
CCCCCCCN(CCCCCCC)CC(O)c1cc2ccccc2c2cc(Br)ccc12 (stereo not given),–,> 100 µM,> 100 µM,–,> 100 µM,> 100 µM,> 100 µM,–,–,–,–,–,–,> 100 µM,–,–,–,–,–,–
CS(=O)(=O)OCCN(CCOS(C)(=O)=O)c1ccc(/C=N/Nc2ncnc3nc[nH]c23)cc1,–,–,–,37.9 µM,–,45.5 µM,31.7 µM,35.4,75.5,74.9,58,38.8,–,–,–,–,–,–,–,–
Oc1ccc(-c2nc3cc(F)ccc3s2)cc1,60.6,33.7 µM,79.4 µM,71.9 µM,43.1 µM,92.6 µM,33.9 µM,–,–,–,–,–,–,–,–,–,–,–,–,–

Compound,TGI [1] [µM],TGI [2],TGI [3],TGI [4],TGI [5],TGI [6],TGI [7],TGI [8] [µM],TGI [9] [µM],TGI [10] [µM],TGI [11] [µM],TGI [12] [µM],TGI [13],TGI [14],GI50 [1] [µM],GI50 [2] [µM],GI50 [4] [µM],GI50 [5] [µM],GI50 [14] [µM],GI50 [7] [µM]
Cc1c2cc[n+](C)cc2c(C)c2c1oc1ccccc12,4.39,–,23.8 µM,70.3 µM,21.5 µM,31.8 µM,14.8 µM,16.7,29.6,> 59.5,> 64.1,–,4.8 µM,35.2 µM,–,–,–,–,–,–
c1c2c(cc3c1OCO3)-c1cc3ccc4c(c3c[n+]1CC2)OCO4,> 12.5,> 12.5 µM,0.595 µM,> 12.5 µM,0.865 µM,> 10.1 µM,> 10.8 µM,–,–,–,–,–,> 12.5 µM,> 6.86 µM,–,–,–,–,–,–
Cc1[nH]n(-c2ccccc2)c(=O)c1C(N(CCc1ccccc1)C1=NCC(C)S1)(C(F)(F)F)C(F)(F)F (stereo not given),49.1,43.1 µM,45.7 µM,–,> 100 µM,34.9 µM,18.7 µM,–,–,–,–,–,88.4 µM,65.6 µM,–,–,–,–,–,–
CC1CC(Br)C(=O)O1 (stereo not given),> 100,> 100 µM,> 100 µM,> 100 µM,> 100 µM,–,> 100 µM,–,–,–,–,–,> 100 µM,> 100 µM,–,–,–,–,–,–
O=C1OC2(OC2c2ccc(Cl)cc2)c2ccccc21 (stereo not given),–,–,–,> 100 µM,–,–,> 100 µM,> 100,–,> 100,> 100,> 100,–,–,–,–,–,–,–,–
CCO[C@]12CCC[C@H]1[C@@H]1C(=O)c3ccccc3C(=O)C1=C(C)O2,–,> 100 µM,43 µM,56.4 µM,> 100 µM,> 100 µM,> 100 µM,–,–,–,–,–,> 100 µM,> 100 µM,–,–,–,–,–,–
CSc1ccc(/C=C2\N=C(c3ccccc3)N(/N=C3\C(=O)Nc4ccccc43)C2=O)cc1,> 100,> 100 µM,> 100 µM,> 100 µM,> 100 µM,> 100 µM,> 100 µM,–,–,–,–,–,> 100 µM,> 100 µM,–,–,–,–,–,–
COc1ccc2c(c1)/C(=C\c1c(Cl)n(-c3ccccc3)c3ccccc13)C(=O)N2,51.3,75.4 µM,–,11.2 µM,–,29.2 µM,21.9 µM,–,–,–,–,–,5.28 µM,> 100 µM,–,–,–,–,–,–
COc1cc([N+](=O)[O-])ccc1NC(=O)c1cccc([N+](=O)[O-])c1O,–,–,–,–,–,–,40.3 µM,–,> 100,> 100,> 100,–,–,–,–,–,–,–,–,–
Nc1nc(OCC2CCCCC2)c2[nH]cnc2n1,> 72.9,30 µM,58.3 µM,57.1 µM,60.7 µM,> 88.1 µM,> 56.9 µM,–,–,–,–,–,> 44.5 µM,> 100 µM,–,–,–,–,–,–
CC1(C=O)CCC23COC4(CCC5C6(C)CCC(OC7OCC(OC8OC(CO)C(O)C(OC9OC(CO)C(O)C(O)C9O)C8OC8OCC(O)C(O)C8O)C(O)C7OC7OC(CO)C(O)C(O)C7O)C(C)(C)C6CCC5(C)C4(C)CC2O)C3C1 (stereo not given),3.06,3.36 µM,1.81 µM,–,–,2.43 µM,2.56 µM,–,–,–,–,–,2.99 µM,0.95 µM,–,–,–,–,–,–
COC(=O)/C=C1\CCCN1CCc1cc2c(cc1CC#N)OCO2,> 100,> 100 µM,45.6 µM,> 100 µM,45.1 µM,> 100 µM,> 100 µM,–,–,–,–,–,> 100 µM,> 100 µM,–,–,–,–,–,–
CCOC(=O)Nc1cc2c(c(N)n1)N=C(c1ccc3ccccc3c1)CN2,> 57.8,> 100 µM,1.04 µM,27.4 µM,0.338 µM,3.81 µM,–,–,–,–,–,–,3.16 µM,–,–,–,–,–,–,–
Cc1ccc(N=NC(C2=NC(=O)CS2)c2nc3ccccc3[nH]2)cc1 (stereo not given),–,–,–,–,–,–,> 100 µM,> 100,–,> 100,> 100,> 100,–,–,–,–,–,–,–,–
Cc1ccc([N+](=O)[O-])cc1S(=O)(=O)Nc1ccc(C2=NOC(c3ccccc3O)C2)cc1 (stereo not given),60.3,> 100 µM,4.17 µM,11.1 µM,3.22 µM,> 100 µM,19.8 µM,–,–,–,–,–,> 100 µM,> 100 µM,–,–,–,–,–,–
